Entries after “also recorded” stand apart in the source; their conditions may differ. Like-named read-outs stand apart in the source and are kept apart here.
Columns and labels:
OAT = molecular target: T1, OAT (Homo sapiens, UniProt P04181); conditions: prior art, FIG. 1; cited from earlier work
T1 sequence (P04181 36-439 limits assumed): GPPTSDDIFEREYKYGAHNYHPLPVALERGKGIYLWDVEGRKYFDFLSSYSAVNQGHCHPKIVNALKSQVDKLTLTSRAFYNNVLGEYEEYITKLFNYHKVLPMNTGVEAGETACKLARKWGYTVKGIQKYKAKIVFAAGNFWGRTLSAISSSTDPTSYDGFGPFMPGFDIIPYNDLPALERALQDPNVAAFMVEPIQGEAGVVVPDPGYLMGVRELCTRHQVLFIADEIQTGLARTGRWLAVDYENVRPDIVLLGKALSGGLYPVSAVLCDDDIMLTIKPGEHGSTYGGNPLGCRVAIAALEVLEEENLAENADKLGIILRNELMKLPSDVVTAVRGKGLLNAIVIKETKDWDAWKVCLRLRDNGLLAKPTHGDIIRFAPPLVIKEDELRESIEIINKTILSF

[1] = tested on: γ-aminobutyric acid aminotransferase (GABA-AT); conditions: cited from earlier work
[2] = 4-week oral (gavage) toxicology/toxicokinetic study in dogs
Procedure: Dogs received test article once daily for at least 4 weeks at a dose volume of 7 mL/kg followed by a 4-week recovery period.
Assessment of toxicity was based on mortality, clinical observations, body weights, body weight gain, food consumption, physical examinations, vital signs (heart rate, respiration, and body temperature), ophthalmology examinations, electrocardiogram examinations, clinical and anatomic pathology, and left eye evaluation.

[3] = tested on: human peripheral blood lymphocytes (HPBL); assay: In vitro mammalian chromosome aberration test; assay type: cell-based; conditions: 535, 1070, and 2140 μg/mL, absence and presence of S9
Procedure: CPP-115 was tested in the in vitro mammalian chromosome aberration test using human peripheral blood lymphocytes (HPBL) in both the absence and presence of an Aroclor-induced rat liver S9 metabolic activation system.

[4] = in vivo
Procedure: Each dose cohort consisted of 8 subjects. […] Subjects were followed for safety for a 30-day period after receiving their single dose of study treatment.
Dose escalation can continue until completion of the 500 mg dose cohort.

[5] = tested on: aspartate aminotransferase; assay: Inhibition of aspartate aminotransferase; assay type: biochemical; conditions: even at 6 mM concentration
CYP1A2 = conditions: concentrations up to 100 μM, 3 days
[6] = tested on: Salmonella typhimurium (TA98, TA100, TA1535, and TA1537) and Escherichia coli (WP2uvrA); assay: In vitro bacterial reverse mutation assay; conditions: up to 5000 μg per plate, presence or absence of S9
alanine aminotransferase = assay: Inhibition of alanine aminotransferase; assay type: biochemical; conditions: even at 6 mM concentration
[7] = tested on: three human GABA transporters; assay: Binding to GABA transporters (summary statement)
CYP3A4/5 = assay: CYP inhibition in human liver microsomes; assay type: in vitro ADME; conditions: 0.1 to 100 μM
[8] = 4-week oral (gavage) toxicology/toxicokinetic study in rats
Procedure: Rats received test article once daily for at least 4 weeks at a dose volume of 10 mL/kg followed by a 4-week recovery period.

[9] = tested on: Cerep panel of 111 pharmacological targets; assay: Cerep panel
GABAC = assay: Binding to GABAC
GABAA = assay: Binding to GABAA
[10] = tested on: γ-aminobutyric acid aminotransferase (GABA-AT); assay: Inhibition/inactivation of GABA-AT; assay type: biochemical
[11] = molecular target: T2, ornithine aminotransferase (OAT) (Homo sapiens, UniProt P04181); assay: Time-dependent inactivation of OAT and dialysis of the inactivated enzyme; assay type: biochemical; conditions: no activity returned upon dialysis for 48 h
T2 sequence (P04181 36-439 limits assumed): T1 sequence (P04181 36-439 limits assumed)
Procedure: OAT activity assays were carried out using as follows.
OAT incubated without the inactivator serves as a control. After 24 h, the enzyme solutions are transferred to a D-Tube™ Mini dialyzer and exhaustively dialyzed against the buffer (100 mM pyrophosphate buffer containing 0.1 mM alpha-ketoglutarate and 0.1 mM PLP, pH 8.0) at 4° C. protected from light. The dialysis buffer is exchanged three times every 4 h and left overnight. After 48 h of dialysis, the remaining OAT activity in each of the solutions is assayed.
For the determination of KI and kinact values, the natural logarithm of the percentage of remaining OAT activity is plotted against the pre-incubation time at each inhibitor concentration to obtain the kobs (slope) value for each concentration. The kobs is the rate constant describing the inactivation at each inhibitor concentration. kobs is re-plotted against the inhibitor concentration using nonlinear regression analysis (Graph-Pad Prism 6; GraphPad Software Inc.). kinact and the KI were estimated from the equation below: […], where kinact is the maximal rate of inactivation, KI is the inhibitor concentration required for half-maximal inactivation, and [I] is the pre-incubation concentration of inhibitor. […] The initial rate constants for the inactivation at various concentrations of the two compounds are determined using nonlinear regression analysis.

HepG2 = assay: Suppression of AFP levels in HCC cells; assay type: cell-based; conditions: HepG2, data not shown
[12] = molecular target: T2, ornithine aminotransferase (OAT); assay: Continuous coupled OAT assay (PYCR1/NADH), inhibition of OAT; assay type: biochemical; conditions: FIG. 2
Text: With these two assays in hand, the activity of a variety of compounds made previously as potential inhibitors of GABA-AT were investigated.

Safety of 13 in mice = assay type: in vivo, C57Bl/6 mice; conditions: 0.5-5 mg/kg, two doses on days 1 and 4, tested a week later; data not shown
Hep3B cells = assay: Alpha-fetoprotein (AFP) secretion in HCC cells; assay type: cell-based, human
[13] = tested on: hepatocellular carcinoma (HCC); conditions: HCC patients, cited from earlier work; for response rates: single agent
[14] = rat, in vivo
Procedure: At the conclusion of dosing, rats entered a wash-out period (5-7 days) after which electroretinograms (ERGs) for scotopic (rod), mesopic (standard combined), photopic (cone), and 10 Hz and 15 Hz3 flicker ERG responses were collected for both eyes from each rat.
Quantitative histological examinations of retinas of the rats from this study were also carried out. Cone receptors were stained with a cone arrestin antibody and counterstained with a red stain for visualization and counting. Retinal sections were also stained with H&E and the ONL nuclei counts and ONL thicknesses were determined.

HepA1-6 [15] = assay: HCC proliferation, 3H-thymidine assay; assay type: cell-based; conditions: HepA1-6, 48 h after exposure to 20 mM gabaculine
PLC/PRF/5 [16] = assay: Alpha-fetoprotein (AFP) secretion in HCC cells; assay type: cell-based
Hep3B = assay: HCC proliferation, 3H-thymidine assay; assay type: cell-based, human; conditions: 48 h after exposure to 20 mM gabaculine
[17] = tested on: human hepatoma Hep3B cells; assay: Effect of gabaculine on HCC growth in vivo; set-up: species or system Athymic Balb/C mice
Procedure: (§1) Alpha-fetoprotein (AFP) secretion was evaluated as a biomarker for HCC. […] Within seven days of a single dose to HCC-harboring mice, AFP serum levels decreased by 92% in comparison with a 9.7 fold increase in controls (FIG. 5C).
Athymic Balb/C mice were conditioned with sub-lethal radiation (400 cGy). At 24 h after irradiation, animals were injected subcutaneously at the right shoulder with 5×10^6 human hepatoma Hep3B cells. Blood samples were obtained weekly by retrobulbar puncture, and serum was separated and frozen at −20° C. until assayed. On day 45 the mice were divided into two groups (n=8 per treated and controls) and baseline serum AFP was measured. […] Mice in the control group were injected with saline. AFP serum levels, which correlate with tumor growth, were measured on day 52 using a standard Elisa test.

HepA1-6 [18] = assay: Alpha-fetoprotein (AFP) secretion in HCC cells; assay type: cell-based
Procedure: as §1

PLC/PRF/5 [19] = assay: HCC proliferation, 3H-thymidine assay; assay type: cell-based; conditions: PLC/PRF/5, 48 h after exposure to 20 mM gabaculine

Molecule: C#CC(N)CCC(=O)O (stereo not drawn) [4-aminohex-5-ynoic acid]
- inactivation/inhibition of OAT (known compounds) (OAT): also inactivate OAT with equal potency
- inactivation/inhibition of GABA-AT (known compounds) ([1]; prior art, FIG. 1): inactivators of GABA-AT

Molecule: NC(CF)CC[C@H](N)C(=O)O (stereo partly drawn) [5-Fluoromethylornithine]
- inactivation/inhibition of OAT (known compounds) (OAT): irreversible inhibitors of OAT

Molecule: N[C@H]1C[C@@H](C(=O)O)CC1=C(F)F [CPP-115, (1S,3S)-3-amino-4-difluoromethylenyl-1-cyclopentanoic acid]
- Human Equivalent Dose [HED] of NOAEL ([2]; dogs): 1.24 mg/kg/day
- no-observed-effect-level (NOEL) ([2]; females): 0.7 mg/kg/day
- no-observed-effect-level (NOEL) ([2]; males): 2.3 mg/kg/day
- chromosome aberrations [3]: not elastogenic; also recorded: no mutations or chromosomal aberrations
- elimination half-life ([4]; human, po): 4 to 6 h
- AUCs versus dose [4]: greater than proportional increase
- cmax versus dose [4]: increased in a dose proportional manner
- time to peak blood concentration ([4]; po): approximately 30 minutes
- inhibition of aspartate aminotransferase [5]: does not inhibit
- induction of CYP1A2 activity (CYP1A2): not an inducer
- mutagenicity (reverse mutations) [6]: not mutagenic; also recorded: no mutations
- inhibition of alanine aminotransferase (alanine aminotransferase): does not inhibit
- binding to three human GABA transporters [7]: does not bind
- direct inhibition of CYP3A4/5 (CYP3A4/5): little or no evidence of direct inhibition
- increases in Cmax and AUC0-t with dose ([8]; 2, 6, 20 mg/kg/day oral): generally dose proportional
- adverse microscopic finding ([8]; 6 or 20 mg/kg/day, dosing and recovery phases): retinal dysplasia
- hepatic extraction and tissue distribution ([8]; after oral administration): may not be highly extracted by the liver and may highly distribute to the tissues
- accumulation after multiple dosing ([8]; oral once daily, 4 weeks): No accumulation
- Human Equivalent Dose [HED] of NOAEL ([8]; rats): 0.96 mg/kg/day
- activity in the Cerep panel of 111 pharmacological targets [9]: not active
- binding to GABAC (GABAC): does not bind
- binding to GABAA (GABAA): does not bind

Molecule: COc1ccc(CN2C(=O)[C@H]3CC(=C(F)F)[C@@H]2C3)cc1 [Compound 13]
- inhibition of GABA-AT ([10]; even at 10 mM concentration): does not inhibit GABA-AT
- efficiency/potency as time-dependent irreversible inhibitor (inactivator) of OAT [11]: most efficient
- suppression of AFP levels / HCC tumor growth in vitro (HepG2): profound suppression
- Ki [12]: 3000 nM
- inhibition of / binding to OAT, in words [12]: most potent inhibitor
- liver enzymes, weight, behavior, and fur look (Safety of 13 in mice): none of the tested doses were there any notable effects
- suppression of AFP levels / HCC tumor growth in vitro (Hep3B cells; Hep3B, data not shown): profound suppression

Molecule: NC1CC(C(=O)O)CC1=C(Cl)Cl (stereo not drawn) [Compound 18]
- binding to GABA-AT [10]: very weak binder
- inhibition of / binding to OAT, in words [12]: very weak binder

Molecule: Cl.N[C@H]1C[C@@H](C(=O)O)C/C1=C\F [Compound 20, (E)-(1S,3S)-3-Amino-4-fluoromethylenyl-1-cyclopentanoic acid, hydrochloride salt]
- time-dependent inhibition of GABA-AT [10]: potent time-dependent inhibitors of GABA-AT

Molecule: Cl.N[C@H]1C[C@@H](C(=O)O)C/C1=C/F [Compound 22, (Z)-(1S,3S)-3-Amino-4-fluoromethylenyl-1-cyclopentanoic acid, hydrochloride salt]
- time-dependent inhibition of GABA-AT [10]: potent time-dependent inhibitors of GABA-AT

Molecule: NCCCC(=O)O [GABA, γ-aminobutyric acid]
- inactivation/inhibition of OAT (known compounds) (OAT): competitive inhibitor of OAT

Molecule: NOCC[C@H](N)C(=O)O [L-canaline]
- inactivation/inhibition of OAT (known compounds) (OAT): irreversible inhibitors of OAT

Molecule: CCCCCOC(=O)Nc1nc(=O)n([C@@H]2O[C@H](C)[C@@H](O)[C@H]2O)cc1F [capecitabine]
- response rates in clinical trials [13]: low and short term

Molecule: N.N.[Cl][Pt][Cl] [cisplatin]
- response rates [13]: about 10%

Molecule: COc1cccc2c1C(=O)c1c(O)c3c(c(O)c1C2=O)C[C@@](O)(C(=O)CO)C[C@@H]3O[C@H]1C[C@H](N)[C@H](O)[C@H](C)O1 [doxorubicin]
- response rates [13]: about 10%

Molecule: O=c1[nH]cc(F)c(=O)[nH]1 [fluorouracil]
- response rates [13]: about 10%

Molecule: Nc1ccn([C@@H]2O[C@H](CO)[C@@H](O)C2(F)F)c(=O)n1 [gemcitabine]
- response rates in clinical trials [13]: low and short term

Molecule: C=CC(N)CCC(=O)O (stereo not drawn) [vigabatrin, Vigabatrin, reference compound]
- cone receptor counts [14]: no statistically significant change
- inactivation/inhibition of OAT (known compounds) (OAT): does not inactivate OAT

Molecule: Gabaculine
- suppression of proliferation (HepA1-6 [15]): 46-51%
- AFP suppression (PLC/PRF/5 [16]): No significant differences
- suppression of proliferation (Hep3B): 46-51%
- tumor growth in vivo ([17]; HCC-harboring mice): significantly suppressed tumor growth in vivo
- decrease of AFP serum levels ([17]; within seven days of a single dose (500 microgram/kg i.p.)): 92%
- AFP suppression (HepA1-6 [18]): No significant differences
- suppression of proliferation (PLC/PRF/5 [19]): 46-51%
- inactivation/inhibition of GABA-AT (known compounds) [1]: inactivators of GABA-AT
- decrease of AFP secretion (Hep3B cells; Hep3B cells): 20%

— US9603820B2, “Ornithine aminotransferase inhibition with GABA analogues for treatment of hepatocellular carcinoma” (Northwestern University, priority 2014, dated 2017)
